Results reported in PubChem BioAssay (NCI).
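Values below derive from 48-hour exposures of cells grown in 96-well plates, with endpoints linearly interpolated between the two concentrations bracketing the appropriate inhibition level. Definition used: TGI = concentration required for complete inhibition of growth.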

Experiments:
Assay in all cases: NCI tumour cell line growth inhibition, 48 h
[1] = test system: 786-0 renal
[2] = test system: A498 renal
[3] = test system: A549 NSCLC
[4] = test system: ACHN renal
[5] = test system: BT-549 breast
[6] = test system: CAKI-1 renal
[7] = test system: CCRF-CEM leukemia
[8] = test system: COLO 205 colon
[9] = test system: DLD-1 colon
[10] = test system: DMS 114 small cell lung
[11] = test system: DMS 273 small cell lung
[12] = test system: DU-145 prostate
[13] = test system: EKVX NSCLC
[14] = test system: HCC-2998 colon
[15] = test system: HCT-116 colon
[16] = test system: HCT-15 colon
[17] = test system: HL-60(TB) leukemia
[18] = test system: HOP-18 NSCLC
[19] = test system: HOP-62 NSCLC
[20] = test system: HOP-92 NSCLC
[21] = test system: HS 578T breast
[22] = test system: HT29 colon
[23] = test system: IGROV1 ovarian
[24] = test system: K-562 leukemia
[25] = test system: KM12 colon
[26] = test system: KM20L2 colon
[27] = test system: LOX IMVI melanoma
[28] = test system: LXFL 529 NSCLC
[29] = test system: M14 melanoma
[30] = test system: M19-MEL melanoma
[31] = test system: MALME-3M melanoma
[32] = test system: MCF7 breast
[33] = test system: MDA-MB-231 breast
[34] = test system: MDA-MB-435
[35] = test system: MDA-N
[36] = test system: MOLT-4 leukemia
[37] = test system: NCI-H226 lung
[38] = test system: NCI-H23 lung
[39] = test system: NCI-H460 lung
[40] = test system: NCI-H522 lung
[41] = test system: NCI/ADR-RES ovarian
[42] = test system: OVCAR-3 ovarian
[43] = test system: OVCAR-4 ovarian
[44] = test system: OVCAR-5 ovarian
[45] = test system: OVCAR-8 ovarian
[46] = test system: PC-3 prostate
[47] = test system: RPMI-8226 leukemia
[48] = test system: RXF 393 renal
[49] = test system: RXF-631 renal
[50] = test system: SF-268 CNS
[51] = test system: SF-295 CNS
[52] = test system: SF-539 CNS
[53] = test system: SK-MEL-2 melanoma
[54] = test system: SK-MEL-28 melanoma
[55] = test system: SK-MEL-5 melanoma
[56] = test system: SK-OV-3 ovarian
[57] = test system: SN12C renal
[58] = test system: SNB-19 CNS
[59] = test system: SNB-75 CNS
[60] = test system: SNB-78 CNS
[61] = test system: SR leukemia
[62] = test system: SW-620 colon
[63] = test system: T-47D breast
[64] = test system: TK-10 renal
[65] = test system: U251 CNS
[66] = test system: UACC-257 melanoma
[67] = test system: UACC-62 melanoma
[68] = test system: UO-31 renal
[69] = test system: XF 498 CNS

With COC(=O)Cc1cc(O)c2c(c1O)C(=O)c1ccccc1C2=O as the compound, how does the TGI [1] read?
Its TGI is over 77.1 µM.

What about the TGI [2] of the same compound?
Its TGI is over 87.1 µM.

And the TGI [3]?
The TGI was over 100 µM.

What about the TGI [4] of the same compound?
The TGI was over 77.9 µM.

What about the TGI [5] of the same compound?
Its TGI is over 100 µM.

And the TGI [6]?
The TGI was over 100 µM.

And the TGI [7]?
Its TGI is over 100 µM.

What about the TGI [8] of the same compound?
Its TGI is over 100 µM.

And the TGI [9]?
The TGI was over 100 µM.

What about the TGI [10] of the same compound?
Its TGI is over 100 µM.

And the TGI [11]?
Its TGI is over 100 µM.

What about the TGI [12] of the same compound?
Its TGI is over 100 µM.

What about the TGI [13] of the same compound?
Its TGI is over 100 µM.

And the TGI [14]?
Its TGI is over 100 µM.

What about the TGI [15] of the same compound?
The TGI was over 100 µM.

And the TGI [16]?
Its TGI is over 100 µM.

What about the TGI [17] of the same compound?
The TGI was over 100 µM.

And the TGI [18]?
Its TGI is over 100 µM.

What about the TGI [19] of the same compound?
Its TGI is 63.3 µM.

And the TGI [20]?
Its TGI is 56 µM.

What about the TGI [21] of the same compound?
Its TGI is over 84.5 µM.

And the TGI [22]?
Its TGI is over 46.4 µM.

And the TGI [23]?
Its TGI is over 100 µM.

What about the TGI [24] of the same compound?
Its TGI is over 100 µM.

And the TGI [25]?
Its TGI is over 100 µM.

And the TGI [26]?
The TGI was over 100 µM.

And the TGI [27]?
Its TGI is over 100 µM.

And the TGI [28]?
The TGI was over 100 µM.

What about the TGI [29] of the same compound?
The TGI was over 100 µM.

And the TGI [30]?
The TGI was over 100 µM.

What about the TGI [31] of the same compound?
The TGI was over 100 µM.

What about the TGI [32] of the same compound?
Its TGI is over 56.3 µM.

What about the TGI [33] of the same compound?
The TGI was 97.5 µM.

What about the TGI [34] of the same compound?
The TGI was over 100 µM.

And the TGI [35]?
The TGI was over 100 µM.

What about the TGI [36] of the same compound?
Its TGI is over 100 µM.

And the TGI [37]?
The TGI was over 100 µM.

What about the TGI [38] of the same compound?
Its TGI is over 100 µM.

What about the TGI [39] of the same compound?
Its TGI is over 100 µM.

What about the TGI [40] of the same compound?
The TGI was over 100 µM.

What about the TGI [41] of the same compound?
The TGI was over 100 µM.

And the TGI [42]?
Its TGI is over 100 µM.

What about the TGI [43] of the same compound?
Its TGI is over 100 µM.

What about the TGI [44] of the same compound?
Its TGI is over 100 µM.

And the TGI [45]?
The TGI was over 100 µM.

What about the TGI [46] of the same compound?
Its TGI is over 100 µM.

What about the TGI [47] of the same compound?
Its TGI is over 100 µM.

What about the TGI [48] of the same compound?
The TGI was 63.7 µM.

And the TGI [49]?
The TGI was over 100 µM.

What about the TGI [50] of the same compound?
Its TGI is over 100 µM.

And the TGI [51]?
Its TGI is over 72.4 µM.

What about the TGI [52] of the same compound?
Its TGI is over 100 µM.

What about the TGI [53] of the same compound?
The TGI was over 100 µM.

What about the TGI [54] of the same compound?
Its TGI is over 100 µM.

What about the TGI [55] of the same compound?
The TGI was over 100 µM.

And the TGI [56]?
Its TGI is over 100 µM.

And the TGI [57]?
Its TGI is over 100 µM.

And the TGI [58]?
The TGI was over 85.5 µM.

And the TGI [59]?
Its TGI is 49 µM.

What about the TGI [60] of the same compound?
The TGI was over 100 µM.

What about the TGI [61] of the same compound?
Its TGI is over 100 µM.

And the TGI [62]?
Its TGI is over 100 µM.

What about the TGI [63] of the same compound?
Its TGI is over 100 µM.

And the TGI [64]?
Its TGI is over 79.9 µM.

What about the TGI [65] of the same compound?
Its TGI is over 93.2 µM.

What about the TGI [66] of the same compound?
Its TGI is over 100 µM.

And the TGI [67]?
The TGI was over 100 µM.

And the TGI [68]?
The TGI was over 100 µM.

Which TGI [1] does the source give for Cc1cc2c(C)nn(Cc3ccccc3)c2c(C(=O)O)c1C here?
The TGI was over 100 µM.

And the TGI [3]?
Its TGI is over 100 µM.

And the TGI [4]?
The TGI was over 100 µM.

What about the TGI [7] of the same compound?
The TGI was over 100 µM.

And the TGI [8]?
The TGI was over 100 µM.

What about the TGI [11] of the same compound?
Its TGI is over 100 µM.

What about the TGI [13] of the same compound?
The TGI was over 100 µM.

And the TGI [14]?
Its TGI is over 100 µM.

What about the TGI [15] of the same compound?
The TGI was over 100 µM.

And the TGI [16]?
Its TGI is over 100 µM.

And the TGI [17]?
Its TGI is over 100 µM.

And the TGI [18]?
The TGI was over 100 µM.

And the TGI [19]?
Its TGI is over 100 µM.

And the TGI [20]?
Its TGI is over 100 µM.

What about the TGI [23] of the same compound?
The TGI was over 100 µM.

What about the TGI [26] of the same compound?
The TGI was over 100 µM.

And the TGI [27]?
Its TGI is over 100 µM.

What about the TGI [28] of the same compound?
Its TGI is over 100 µM.

And the TGI [30]?
Its TGI is over 100 µM.

And the TGI [31]?
The TGI was over 100 µM.

What about the TGI [36] of the same compound?
Its TGI is over 100 µM.

And the TGI [37]?
Its TGI is over 100 µM.

What about the TGI [38] of the same compound?
Its TGI is over 100 µM.

What about the TGI [42] of the same compound?
Its TGI is over 100 µM.

What about the TGI [44] of the same compound?
The TGI was over 100 µM.

And the TGI [45]?
The TGI was over 100 µM.

What about the TGI [47] of the same compound?
The TGI was over 100 µM.

And the TGI [48]?
The TGI was over 100 µM.

What about the TGI [49] of the same compound?
Its TGI is over 100 µM.

What about the TGI [50] of the same compound?
Its TGI is over 100 µM.

And the TGI [51]?
The TGI was over 100 µM.

And the TGI [52]?
Its TGI is over 100 µM.

What about the TGI [53] of the same compound?
The TGI was over 100 µM.

What about the TGI [54] of the same compound?
Its TGI is over 100 µM.

What about the TGI [56] of the same compound?
Its TGI is over 100 µM.

What about the TGI [57] of the same compound?
The TGI was over 100 µM.

And the TGI [58]?
The TGI was over 100 µM.

And the TGI [60]?
The TGI was over 100 µM.

What about the TGI [61] of the same compound?
The TGI was over 100 µM.

What about the TGI [62] of the same compound?
The TGI was over 100 µM.

And the TGI [64]?
Its TGI is over 100 µM.

And the TGI [65]?
The TGI was over 100 µM.

What about the TGI [66] of the same compound?
The TGI was over 100 µM.

And the TGI [67]?
The TGI was over 100 µM.

And the TGI [68]?
Its TGI is over 100 µM.

And the TGI [69]?
The TGI was over 100 µM.
